Results filed as inconclusive are left out.
Test system: C2C12 myotubes + simvastatin, ATP luminescence, 48 h
Assay: suppressors of statin-induced myotube ATP loss, dose response, cell-based, differentiated C2C12, luminescence, dry powder (AID 743336)

For `C[C@@H]1CN([C@H](C)CO)C(=O)c2cc(NC(=O)Nc3cccc4ccccc34)ccc2O[C@@H]1CN(C)Cc1ccc(C(=O)Nc2ccccc2N)cc1`, the AC40 was 15.9 µM.

Work on `C[C@H]1CN([C@@H](C)CO)S(=O)(=O)c2ccc(C#Cc3ccc(F)cc3)cc2O[C@@H]1CN(C)S(=O)(=O)c1cn(C)cn1` yielded an AC40 of 18.9 µM.

From PubChem BioAssay AID743336 (Broad Institute, 2014)
